The values that follow come from US7985751B2, “Piperazine derivatives” (M's Science Corporation, priority 2005, dated 2011).

Where a name gives a salt, the structure may show the parent alone. Bounds are passed on as bounds.

Data set [1] deals with sigma receptor-mediated neck dystonia in rats. As to conditions: microinjection, Nakazawa M et al 1999; cited from earlier work.
Data set [2] addresses T1, σ2 receptors (Homo sapiens, UniProt Q5BJF2).
T1 construct: incubating 50 μg of HEK-293 cell membranes with 10 nM [^3H]-DTG; endogenous in cells; host or cells: HEK-293
Briefly: σ2 receptor binding assay ([3H]DTG displacement with σ1 masked by pentazocine, HEK-293 cell membranes). As to conditions: σ1 versus σ2 binding, result in words. The method, then:
(§1) Sigma 1 (σ1) and sigma 2 (σ2) receptor binding assays are carried out in membranes from HEK-293 (Human Embryonic Kidney) cells.
(§2) Confluent HEK-293 cells are harvested in PBS/5 mM EDTA. They are centrifuged at 2000 rpm for 5 min and then washed two times in PBS. Cells are homogenized in 20 mM Tris-HCL (pH=7.5) containing 5 mM EDTA, 0.5 mM PMSF and 0.5 μg/ml leupeptin using a Dounce homogenizer and sonicated for 5 minutes.
Nuclear debris and intact cells are removed by centrifugation at 3000 rpm for 10 minutes at 4° C. […]
Proteins are determined using the Bio Rad Protein Assay Dye Reagent and the membranes are aliquoted and frozen at −80° C. […]
Total binding is determined by incubating 50 μg of HEK-293 cell membranes with 10 nM [^3H]-DTG (Perkin-Elmer, 58 Ci/mmol) in the presence of 10 μM pentazocine and assay buffer (50 mM Tris-HCl, pH=8.3) in a total volume of 200 μl. Non specific binding is determined in the presence of 10 μM unlabeled DTG. […] The filters are washed three times and the membrane-bound radioactivity is determined in a Microbeta scintillation counter. […]
(§3) Specific binding is determined by subtraction of non specific binding from total binding. […]

Data set [3] concerns the target T2, σ1 receptors (Homo sapiens, UniProt Q99720).
T2 construct: incubating 50 μg of HEK-293 cell membranes with 10 nM (+)-[^3H]-pentazocine; endogenous in cells; host or cells: HEK-293
Nature of the data set: σ1 receptor binding assay ((+)-[3H]pentazocine displacement, HEK-293 cell membranes). As to conditions: for affinity for sigma receptors, in particular sigma-1 receptors: result in words. The method, then:
as §1, §2
Nuclear debris and intact cells are removed by centrifugation at 3000 rpm for 10 minutes at 4° C. The supernatant is centrifuged at 12000 rpm for 30 minutes and the resulting pellet is resuspended in 25 mM Tris-HCL (pH=7.5), 25 mM Mg2Cl, 10% sucrose containing 0.5 mM PMSF, 2 mM AEBSF, 1 mM EDTA, 130 μM bestatin, 14 μM E-64, 1 μM leupeptin, and 0.3 mM aprotinin.
Proteins are determined using the Bio Rad Protein Assay Dye Reagent and the membranes are aliquoted and frozen at −80° C.
The binding assays are performed in 96-well plates.
σ1 receptors are labeled using the σ1 selective probe (+)-[^3H] Pentazocine (Bowen W D et al, Mol Neuropharmacol 3, 117-126, 1993).
Total binding is determined by incubating 50 μg of HEK-293 cell membranes with 10 nM (+)-[^3H]-pentazocine (Perkin-Elmer, 35 Ci/mmol) and assay buffer (50 mM Tris-HCl, pH=8.3) in a total volume of 200 μl. Non specific binding is determined in the presence of 10 μM unlabeled pentazocine. For competition experiments, 50 μl of displacing compound is added at 8 different concentrations. Incubations are carried out for 120 min at 37° C. Assays are terminated by dilution with ice-cold 10 mM Tris-HCl, pH=8.3 and vacuum filtration through glass fibers using a Skatron cell harvester from Molecular Devices. The filters are washed three times and the membrane-bound radioactivity is determined in a Microbeta scintillation counter.
Filters are soaked in 0.5% polyethyleneimine for 1 hour before use.
as §3

T2 sequence (Q99720 whole entry): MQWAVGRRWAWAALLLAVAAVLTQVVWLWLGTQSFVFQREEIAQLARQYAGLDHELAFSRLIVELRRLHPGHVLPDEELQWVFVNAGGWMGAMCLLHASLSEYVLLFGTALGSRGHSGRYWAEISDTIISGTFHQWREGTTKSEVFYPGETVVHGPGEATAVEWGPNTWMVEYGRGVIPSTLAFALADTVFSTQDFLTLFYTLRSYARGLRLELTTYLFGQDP
T1 sequence (Q5BJF2 whole entry): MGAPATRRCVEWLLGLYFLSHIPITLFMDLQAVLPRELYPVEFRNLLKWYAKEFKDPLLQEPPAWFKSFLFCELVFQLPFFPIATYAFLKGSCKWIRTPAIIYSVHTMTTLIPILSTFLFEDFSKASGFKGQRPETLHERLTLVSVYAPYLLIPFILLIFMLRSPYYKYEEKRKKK

Take `Cc1ccccc1NC(=N)Nc1ccccc1C` [DTG, 1,3-di-2-tolyl-guanidine]: the “induction of neck dystonia” value in data set [1] is reported as “induced neck dystonia”.

Turning to `COc1cc(CCN2CCN(CCCc3ccccc3)CC2)cc(OC)c1OC.Cl` [1-[2-(3,4,5-trimethoxyphenyl)ethyl]-4-(3-phenylpropyl)piperazine hydrochloride], the “selectivity for σ1 receptor over σ2 receptor” value in data set [2] was “highly selective”. Further, in data set [3], the IC50 is below 300 nM and the “affinity for sigma receptors, in particular sigma-1 receptors” value is given as “high affinity”.

Consider `Fc1ccccc1CCN1CCN(CCCc2ccccc2)CC1` [Example 4, 1-[2-(2-Fluorophenyl)ethyl]-4-(3-phenylpropyl)piperazine dihydrochloride], for which the “selectivity for σ1 receptor over σ2 receptor” value in data set [2] is listed as “especially good”. Besides, in data set [3], the “affinity for sigma receptors, in particular sigma-1 receptors” value is “especially good”.

Consider `COc1ccc(CCN2CCN(CCCc3ccccc3)CC2)cc1OC` [SA-4503, 1-[2-(3,4-dimethoxyphenyl)ethyl]-4-(3-phenylpropyl)piperazine], for which the “induction of neck dystonia” value in data set [1] is recorded as “no effect”.

A word on the IC50: it is the concentration that inhibits the measured activity by half. Read a low IC50 as higher potency.
